The values below come from US11926645B2, “Compounds and methods for treatment of viral infections” (priority 2020, dated 2024).

What all share (type): cell-based
The subject of data set [1] is RSV-Fluc (Respiratory Syncytial virus strain A2 containing the firefly luciferase reporter). Nature of the data set: microbe, parasite or virus in culture. The note with it: human respiratory syncytial virus, 72 h, NHBE cells, three days.
The next data set is described as follows: in vitro. The note with it: human. How it is done:
The cytotoxicity of compounds was determined in A549-hACE2 cells in the following manner. Compounds (200 nL) were spotted onto 384-well Grenier plates prior to seeding 5000 A549-hACE2 cells/well in a volume of 40 μL culture medium. The plates were incubated at 37° C. for 48 hours with 5% CO2. On day 2, 40 μL of CellTiter-Glo (Promega) was added and mixed 5 times.

For another data set, the system named is SARS-CoV-2-Nluc viruses. Nature of the data set: microbe, parasite or virus in culture.
A further data set has as its system RSV strain A2. Nature of the data set: RSV antiviral assay (Hep2), EC50-Hep2/B1-384. The note with it: human respiratory syncytial virus, HEp-2, 96 h; Hep2 cells, 4 days, Cell-Titer Glo.
[2] abbreviates: Severe acute respiratory syndrome coronavirus 2, 48 h; read-out: SARS-CoV2 EC50.
Where [3] appears, read: Severe acute respiratory syndrome coronavirus 2, 48 h, read-out: SARS-CoV2 EC50.

Molecules are shown by their SMILES. Like-named read-outs stand apart in the source and are kept apart here. Bounds are passed on as bounds.

On to `CC(C)[C@H](N)C(=O)OC[C@H]1O[C@@](C#N)(c2ccc3c(N)ncnn23)[C@H](O)[C@@H]1O` [Compound 8, ((2R,3S,4R,5R)-5-(4-aminopyrrolo[2,1-f][1,2,4]triazin-7-yl)-5-cyano-3,4-dihydroxytetrahydrofuran-2-yl)methyl L-valinate], for which the EC50 is over 5 µM in data set [1], 2.7 µM with SARS-CoV-2-Nluc viruses (setting [2]) and 0.904 µM in the data set with RSV strain A2. The compound further returned a half-maximal cytotoxic concentration (CC50) at 48 h in “in vitro” of over 100 µM.

In the case of `CCCC(=O)OC[C@H]1O[C@@](C#N)(c2ccc3c(N)ncnn23)[C@H](O)[C@@H]1O` [Compound 25, ((2R,3S,4R,5R)-5-(4-aminopyrrolo[2,1-f][1,2,4]triazin-7-yl)-5-cyano-3,4-dihydroxytetrahydrofuran-2-yl)methyl butyrate], the figures for the concentration giving a half-maximal response (EC50) (in data set [1]; with SARS-CoV-2-Nluc viruses (setting [2]); in the data set with RSV strain A2) were 0.601 µM, 1.22 µM and 0.225 µM, respectively. In “in vitro”, the 50% cytotoxic concentration (CC50) at 48 h is over 10 µM.

Turning to `N#C[C@@]1(c2ccc3c(N)ncnn23)O[C@H](COC(=O)C[C@@H](N)Cc2ccccc2)[C@@H](O)[C@H]1O` [Compound 14, ((2R,3S,4R,5R)-5-(4-aminopyrrolo[2,1-f][1,2,4]triazin-7-yl)-5-cyano-3,4-dihydroxytetrahydrofuran-2-yl)methyl (S)-3-amino-4-phenylbutanoate], in the data set “in vitro”, the CC50 at 48 h is over 50 µM. The values for the EC50 with SARS-CoV-2-Nluc viruses (setting [2]) and with RSV strain A2 were 2.7 µM and 0.825 µM, respectively.

Take `CC(C)C(=O)O[C@H]1[C@@H](OC(=O)C(C)C)[C@](C#N)(c2ccc3c(N)ncnn23)O[C@@H]1COC(=O)[C@@H](N)C(C)C` [Compound 12, (2R,3R,4R,5R)-5-(((L-valyl)oxy)methyl)-2-(4-aminopyrrolo[2,1-f][1,2,4]triazin-7-yl)-2-cyanotetrahydrofuran-3,4-diylbis(2-methylpropanoate)]: the EC50 in data set [1] was determined as 0.169 µM; in the data set with SARS-CoV-2-Nluc viruses (setting [2]) it was 3.3 µM; in the data set with RSV strain A2 it was 0.42 µM. For the same compound, in the data set “in vitro”, the CC50 at 48 h was over 50 µM.

In turn, `N#C[C@@]1(c2ccc3c(N)ncnn23)O[C@H](CO)[C@H]2OC(c3ccccc3)O[C@H]21` (stereo partly drawn) [Compound 4, (3aR,4R,6R,6aR)-4-(4-aminopyrrolo[2,1-f][1,2,4]triazin-7-yl)-6-(hydroxymethyl)-2-phenyltetrahydrofuro[3,4-d][1,3]dioxole-4-carbonitrile] gave a cytotoxic concentration (CC50) at 48 h in the data set “in vitro” of over 100 µM. The values for the EC50 in the data set with SARS-CoV-2-Nluc viruses (setting [2]) and in the data set with RSV strain A2 were over 10 µM and 26.3 µM, respectively.

For the compound `CCCCCCCC(=O)OC[C@H]1O[C@@](C#N)(c2ccc3c(N)ncnn23)[C@H](O)[C@@H]1O` [Compound 20, ((2R,3S,4R,5R)-5-(4-aminopyrrolo[2,1-f][1,2,4]triazin-7-yl)-5-cyano-3,4-dihydroxytetrahydrofuran-2-yl)methyl octanoate], the figures for the concentration giving a half-maximal response (EC50) (in data set [1]; with SARS-CoV-2-Nluc viruses (setting [2]); in the data set on RSV strain A2) were 0.841 µM, 0.61 µM and 0.272 µM, respectively. This compound also displayed a CC50 at 48 h in the data set “in vitro” of over 10 µM.

For the compound `CCCC(CCC)C(=O)OC[C@H]1O[C@@](C#N)(c2ccc3c(N)ncnn23)[C@H](O)[C@@H]1O` [Compound 18, ((2R,3S,4R,5R)-5-(4-aminopyrrolo[2,1-f][1,2,4]triazin-7-yl)-5-cyano-3,4-dihydroxytetrahydrofuran-2-yl)methyl 2-propylpentanoate], the values for the EC50 (in data set [1]; in the data set with SARS-CoV-2-Nluc viruses (setting [3]); with RSV strain A2) were 0.224 µM, 0.94 µM and 0.172 µM, respectively. In the data set “in vitro”, this compound registered a half-maximal cytotoxic concentration (CC50) at 48 h of over 10 µM.

Turning to `CC(C)(N)C(=O)OC[C@H]1O[C@@](C#N)(c2ccc3c(N)ncnn23)[C@H](O)[C@@H]1O` [Compound 7, ((2R,3S,4R,5R)-5-(4-aminopyrrolo[2,1-f][1,2,4]triazin-7-yl)-5-cyano-3,4-dihydroxytetrahydrofuran-2-yl)methyl 2-amino-2-methylpropanoate], the CC50 at 48 h in “in vitro” was over 50 µM. The concentration giving a half-maximal response (EC50) worked out at 3.1 µM in the data set on SARS-CoV-2-Nluc viruses (setting [2]) and 0.859 µM in the data set with RSV strain A2.

Consider `N#C[C@@]1(c2ccc3c(N)ncnn23)O[C@H](CO)[C@H]2OC(=O)O[C@H]21` [Compound 13, (3aR,4R,6R,6aR)-4-(4-aminopyrrolo[2,1-f][1,2,4]triazin-7-yl)-6-(hydroxymethyl)-2-oxotetrahydrofuro[3,4-d][1,3]dioxole-4-carbonitrile], for which the CC50 at 48 h in “in vitro” is over 50 µM. Further, the EC50 with SARS-CoV-2-Nluc viruses (setting [2]) is 1.3 µM; with RSV strain A2, 0.506 µM.

Take `Cc1ccc(C(=O)OC[C@H]2O[C@@](C#N)(c3ccc4c(N)ncnn34)[C@H](O)[C@@H]2O)cc1` [Compound 23, ((2R,3S,4R,5R)-5-(4-aminopyrrolo[2,1-f][1,2,4]triazin-7-yl)-5-cyano-3,4-dihydroxytetrahydrofuran-2-yl)methyl 4-methylbenzoate]: the concentration giving a half-maximal response (EC50) was determined as 0.249 µM in data set [1], 1.09 µM in the data set with SARS-CoV-2-Nluc viruses (setting [2]) and 0.197 µM in the data set on RSV strain A2. In “in vitro”, the cytotoxic concentration (CC50) at 48 h was over 10 µM.

Regarding `N#C[C@@]1(c2ccc3c(N)ncnn23)O[C@H](COC(=O)[C@@H](N)Cc2ccccc2)[C@@H](O)[C@H]1O` [Compound 10, ((2R,3S,4R,5R)-5-(4-aminopyrrolo[2,1-f][1,2,4]triazin-7-yl)-5-cyano-3,4-dihydroxytetrahydrofuran-2-yl)methyl L-phenylalaninate], the half-maximal cytotoxic concentration (CC50) at 48 h in the data set “in vitro” was over 100 µM. The EC50 in the data set with SARS-CoV-2-Nluc viruses (setting [2]) was 2.2 µM; in the data set on RSV strain A2, 1.2 µM.

With `CC(=O)OC[C@H]1O[C@@](C#N)(c2ccc3c(N)ncnn23)[C@H](O)[C@@H]1O` [Compound 30, ((2R,3S,4R,5R)-5-(4-aminopyrrolo[2,1-f][1,2,4]triazin-7-yl)-5-cyano-3,4-dihydroxytetrahydrofuran-2-yl)methyl acetate], the concentration for a half-maximal effect (EC50) in data set [1] was found to be 2.37 µM; in the data set on SARS-CoV-2-Nluc viruses (setting [2]), 2.32 µM; with RSV strain A2, 0.643 µM. The compound also came in with a CC50 at 48 h in the data set “in vitro” of over 50 µM.

For the compound `N#C[C@@]1(c2ccc3c(N)ncnn23)O[C@H](COC(=O)Cc2ccccc2)[C@@H](O)[C@H]1O` [Compound 22, ((2R,3S,4R,5R)-5-(4-aminopyrrolo[2,1-f][1,2,4]triazin-7-yl)-5-cyano-3,4-dihydroxytetrahydrofuran-2-yl)methyl 2-phenylacetate], the values for the EC50 (in data set [1]; with SARS-CoV-2-Nluc viruses (setting [2]); with RSV strain A2) were 0.79 µM, 0.85 µM and 0.218 µM, respectively. Also, the CC50 in “in vitro” (48 hours, CellTiter-Glo, read-out: A549-hACE2 CC50) is over 10 µM.

As for `CC(=O)OC[C@H]1O[C@@](C#N)(c2ccc3c(N)ncnn23)[C@H](OC(C)=O)[C@@H]1OC(C)=O` [Compound 2, (2R,3R,4R,5R)-5-(acetoxymethyl)-2-(4-aminopyrrolo[2,1-f][1,2,4]triazin-7-yl)-2-cyanotetrahydrofuran-3,4-diyl diacetate], the results for the concentration giving a half-maximal response (EC50) (in data set [1]; in the data set with SARS-CoV-2-Nluc viruses (setting [2]); with RSV strain A2) were 0.287 µM, 1.9 µM and 0.537 µM, respectively. Moreover, in “in vitro”, the CC50 at 48 h is over 50 µM.

Regarding `N#C[C@@]1(c2ccc3c(N)ncnn23)O[C@H](COC(=O)C2CCCC2)[C@@H](O)[C@H]1O` [Compound 28, ((2R,3S,4R,5R)-5-(4-aminopyrrolo[2,1-f][1,2,4]triazin-7-yl)-5-cyano-3,4-dihydroxytetrahydrofuran-2-yl)methyl cyclopentanecarboxylate], the concentration for a half-maximal effect (EC50) in data set [1] was determined as 1.8 µM; with SARS-CoV-2-Nluc viruses (setting [2]) it was 0.43 µM; in the data set with RSV strain A2 it was 0.268 µM. In “in vitro”, this compound had a cytotoxic concentration (CC50) at 48 h of 40 µM.

Turning to `CC(C)CC(=O)OC[C@H]1O[C@@](C#N)(c2ccc3c(N)ncnn23)[C@H](O)[C@@H]1O` [Compound 16, ((2R,3S,4R,5R)-5-(4-aminopyrrolo[2,1-f][1,2,4]triazin-7-yl)-5-cyano-3,4-dihydroxytetrahydrofuran-2-yl)methyl 3-methylbutanoate], the concentration giving a half-maximal response (EC50) in data set [1] stood at 0.575 µM; in the data set on SARS-CoV-2-Nluc viruses (setting [3]), 1.22 µM; in the data set on RSV strain A2 it was 0.216 µM. The CC50 at 48 h in the data set “in vitro” is over 10 µM.

Consider `CC(C)(C)C(=O)OC[C@H]1O[C@@](C#N)(c2ccc3c(N)ncnn23)[C@H](O)[C@@H]1O` [Compound 32, ((2R,3S,4R,5R)-5-(4-aminopyrrolo[2,1-f][1,2,4]triazin-7-yl)-5-cyano-3,4-dihydroxytetrahydrofuran-2-yl)methyl pivalate], for which the EC50 was 0.581 µM in data set [1], 2.32 µM in the data set on SARS-CoV-2-Nluc viruses (setting [2]) and 0.59 µM in the data set on RSV strain A2. This compound had a CC50 at 48 h in the data set “in vitro” of over 50 µM.

`CC(C)[C@H](N)C(=O)OC[C@H]1O[C@@](C#N)(c2ccc3c(N)ncnn23)[C@@H]2OC(c3ccccc3)O[C@@H]21` (stereo partly drawn) [Compound 6, ((3aR,4R,6R,6aR)-6-(4-aminopyrrolo[2,1-f][1,2,4]triazin-7-yl)-6-cyano-2-phenyltetrahydrofuro[3,4-d][1,3]dioxol-4-yl)methyl L-valinate] yielded a half-maximal cytotoxic concentration (CC50) at 48 h in “in vitro” of over 71.2 µM. Further, the results for the 50% effective concentration (EC50) in the data set with SARS-CoV-2-Nluc viruses (setting [2]) and in the data set with RSV strain A2 were over 10 µM and 23.6 µM, respectively.

As for `CC(C)C(=O)OC[C@H]1O[C@@](C#N)(c2ccc3c(N)ncnn23)[C@@H]2OC(c3ccccc3)O[C@@H]21` (stereo partly drawn) [Compound 5, ((3aR,4R,6R,6aR)-6-(4-aminopyrrolo[2,1-f][1,2,4]triazin-7-yl)-6-cyano-2-phenyltetrahydrofuro[3,4-d][1,3]dioxol-4-yl)methyl isobutyrate], the 50% cytotoxic concentration (CC50) at 48 h in the data set “in vitro” was over 100 µM. Further, the EC50 in the data set on SARS-CoV-2-Nluc viruses (setting [2]) was over 10 µM; with RSV strain A2, 13.1 µM.

For the compound `CC(C)[C@@H](N)C(=O)OC[C@H]1O[C@@](C#N)(c2ccc3c(N)ncnn23)[C@H](O)[C@@H]1O` [Compound 9, ((2R,3S,4R,5R)-5-(4-aminopyrrolo[2,1-f][1,2,4]triazin-7-yl)-5-cyano-3,4-dihydroxytetrahydrofuran-2-yl)methyl D-valinate], the CC50 at 48 h in “in vitro” was over 50 µM. For the same compound, the figures for the EC50 in the data set with SARS-CoV-2-Nluc viruses (setting [2]) and with RSV strain A2 were 2.4 µM and 0.798 µM, respectively.
